Experimental data: publication PMC9764287, “Multivalent Fucosides Targeting β-Propeller Lectins from Lung Pathogens with Promising Anti-Adhesive Properties” (ACS Chemical Biology, 2022)
Where “and” joins values, the source holds several entries; their conditions need not be identical. Identical values can stand only once. Like-named read-outs stand apart in the source and are kept apart here.

Assays:
[1] = target: T1, FleA (Aspergillus fumigatus, UniProt Q4WW81); test: Isothermal titration calorimetry (ITC); format: binding; conditions: for Kd: 20 mM Tris, 100 mM NaCl, pH 8.0; for N stoichiometry FleA ITC: ratio of compound per FleA monomer (six binding sites); for -TΔS (kJ/mol) FleA binding / ΔH (kJ/mol) FleA binding: Table S1, ITC 25 °C
T1 construct: 6xHis (TEV-cleavable) (N, cleaved yes); made in house
Text: (§1) Due to the time-consuming measurements and the high quantity of protein necessary in some techniques, we selected only the four inhibitors with the largest size (compounds with PEGn=4 and hPG-20) for further biophysical analysis. More in-depth studies were continued by isothermal titration calorimetry (ITC) and bio-layer interferometry (BLI), which confirmed the trends previously seen by FP (Table 2). In the ITC experiments, the fungal lectins bound their monovalent reference with a stoichiometry (N) value around […], which is consistent with the number of high-affinity binding sites per monomer. With the value close to […] obtained for BambL, the reference experiments are indicative of active recombinant proteins and correlate well with previous findings in the literature.[39],[41] […] This calls for a likely mixed chelate-aggregative binding, whose precise architecture cannot be determined based solely on the compound/protein ratio.
(§2) 1.2 I sotherm al ti trati on c al ori m etry
(§3) Protein targets were pl ace d i n t he sample cell at concentrations ranging between 50 an d 8.5 μM at 25 °C. […]
Ta b le S1. Microcalorimetry data relative to Fl e A binding.

[2] = target: T2, BambL (Burkholderia ambifaria, UniProt Q0B4G1); test: Isothermal titration calorimetry (ITC); format: binding; conditions: for Kd: 20 mM Tris, 100 mM NaCl, pH 8.0; for -TΔS (kJ/mol) BambL binding / ΔH (kJ/mol) BambL binding / N BambL binding (Table S3): Table S3, ITC 25 °C; for N BambL binding (Table S3): as printed in SI, one third of the per-trimer N of Table 2
Text: as §1, §2, §3
Ta b le S3. Microcalorimetry data relative to B am bL binding.

[3] = target: T1, FleA; set-up: method as in PMID 25760594; conditions: SPR experiment; read-out: Kd of binding for FleA; cited from earlier work
[4] = target: T2, BambL; test: Competitive fluorescence polarization (FP) assay; format: binding; conditions: Fuc-FITC probe 6 nM, protein 100 nM, average over two independent experiments, read-out: IC50 (nM) ± SD BambL
Text: (§4) With the targeted lectins in hand, we could screen the inhibitory properties of the synthesized compounds by a competitive binding assay based on fluorescence polarization (FP). […] In general, results confirmed the power of multivalency as IC50 values improved from the micromolar range for the monosaccharide reference to the nanomolar range for the multivalent counterparts (Table 1).
(§5) 1.1 F l uoresc en c e pol ari z ati on c om peti ti ve assay
(§6) The fluorescen t ligan d Fu c -FI TC (F i g ur e S 1 ) w as pr e par e d f r om com poun d 2a followin g a protocol reported in literature.1 T y pi cal l y , a s t ock s ol uti on of pr ote i n (f i n al con ce n tr ati on 100 n M) an d Fu c -FI TC (final concentration 6 n M) w e r e adde d to 3 -f ol d serial dilution s of testin g compoun ds in dupl i cat e s on a bl ack 9 6 well microtiter plate (CO S T A R TM 96) . […] The starting concentration for the monovalent com poun d w as 3 mM an d 5 -fold dilution s were used in this case. All compon en ts were dissolved in the same buffer (20 mM Tris, 100 mM N aCl , pH 8.0). After addition of the reagents, the microtiter plates were s hak e d f or 1 h at room temperature i n t he dar k . […] A fluorescen ce in ten sity spectral scan of the multivalent compounds alone was also performed to confirm no interference with the analysis. […] The point of inflection was used to determine the IC50 value of each experiment. […]
(§7) Fi gu re S1 . The structure of the fluorescent probe Fu c -FI TC.

[5] = target: T1, FleA; test: Competitive fluorescence polarization (FP) assay; format: binding; conditions: Fuc-FITC probe 6 nM, protein 100 nM, average over two independent experiments, read-out: IC50 (nM) ± SD FleA
Text: as §4, §5, §6, §7

[6] = target: T3, SapL1 (Scedosporium apiospermum, UniProt A0A084FYP2); test: Competitive fluorescence polarization (FP) assay; format: binding; conditions: read-out: IC50 (nM) ± SD SapL1, Fuc-FITC probe 6 nM, protein 100 nM, average over two independent experiments
Text: as §4, §5, §6, §7

[7] = target: T3, SapL1; test: Isothermal titration calorimetry (ITC); format: binding; conditions: for N stoichiometry SapL1 ITC: ratio of compound per SapL1 monomer (six binding sites); for -TΔS (kJ/mol) SapL1 binding / ΔH (kJ/mol) SapL1 binding: Table S2, ITC 25 °C
Text: as §1, §2, §3
Ta b le S2. Microcalorimetry data relative to S apL1 binding. […]

[8] = target: T2, BambL; test: Bio-layer interferometry (BLI), biotinylated lectin on streptavidin sensor; format: binding; conditions: read-out: Kobs (nM) BambL BLI; 25 °C; protein immobilized
Text: (§8) Applying different techniques to study the mechanism of multivalent binding is always advisable to better understand the process at a molecular level.[44] BLI is a biophysical technique where the target protein can be immobilized on the surface of the sensor, so problems related to aggregation should be eliminated. This technology has in fact been applied to the study of lectin-multivalent glycoconjugate interactions in a reliable, low-cost, and fast way.[45] […] A discrepancy of this nature is not too surprising considering that in the BLI experiment, one of the binding partners is immobilized, so its Kd’s might be better labeled as Kobs. Different techniques measure inherently different properties. It has been pointed out in a recent publication that drastically different outcomes can be obtained from solution to surface experimental approaches and that these variations are highly dependent on the accessibility of the binding motif.[46] The arrangement of glycans and the linker used for immobilization have shown to influence affinity on the glycan array setting. Therefore, it is likely that also the arrangement of a protein on the surface can have a similar effect when the setting is reversed.[46],[47] The difference in affinities between ITC and BLI for the fungal versus the bacterial lectins may relate to their orientation on the surface. The proteins were immobilized to the surface of a streptavidin-coated sensor through biotinylation of their lysine residues. BambL has only one lysine per monomer, opposite to the binding surface, while FleA and SapL1 have several, some of which close to the binding sites. It is plausible that this would influence the binding of the lectins to the sensor and the exposure of their sites. […] In contrast, all binding sites and modalities are accessible in solution during ITC.
(§9) 1.4 B i ol ayer i n terferom etry
(§10) The mixture was incubate d for 30 minutes with stirring. […] Biotinylated protein at 100nM concentrations were loaded on the sensor. […]

[9] = target: T1, FleA; test: as above; format: binding; conditions: 25 °C; protein immobilized; read-out: Kobs (nM) FleA BLI
Text: as §8, §9, §10

[10] = target: T3, SapL1; test: as above; format: binding; conditions: read-out: Kobs (nM) SapL1 BLI; 25 °C; protein immobilized
Text: as §8, §9, §10

[11] = system: adhesion of Af293.1 spores to A549 cells; test: Adhesion assay of A. fumigatus conidia to lung epithelial cells; format: cell-based, Aspergillus fumigatus
Description: In our adhesion assay, A549 cells were cultured in a well-plate until a confluent layer was obtained and then challenged with A. fumigatus conidia in the presence or absence of FleA inhibitors. After incubation and washing to remove unbound spores from the cell layer, imaging was performed by confocal microscopy (Figure 4). The detection of fungi was facilitated by the availability of Af293.1, a strain originally derived from a clinical isolate and genetically modified to constitutively express red fluorescent protein.[53] Cell nuclei were stained with Hoechst fluorescent dye for visualization.[54] Cell and spore counts were calculated by ImageJ software and used to express adhesion efficiencies.
Figure 5 Adhesion of Af293.1 to A459. The black bars refer to the conditions where compounds and spores were pre-incubated 1 h prior infection. The white-striped bars refer to the conditions where compounds were added 1 h after infection. *Significant difference to the control (chi-square test, followed by Bonferroni’s multiple comparison test).
[…] Unbound conidia were removed carefully by washin g 4 times with m e di a (D ME M + 10% F BS). […] Fluorescence emission of Hoechst was de te cte d us i n g the 400- 600 nm spectral band and red fluorescence emission of R F P was detected with the 560- 700 n m s pe ctr al ban d. […]

[12] = target: FleA, SapL1, and BambL; set-up: method as in PMID 24340081, PMID 34373510, PMID 22170069; conditions: range over FleA, read-out: Kd of α-methyl fucose; cited from earlier work

T2 sequence (Q0B4G1 1-87): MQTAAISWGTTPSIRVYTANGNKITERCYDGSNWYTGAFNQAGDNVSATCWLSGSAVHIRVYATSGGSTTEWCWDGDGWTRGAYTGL
T3 sequence (A0A084FYP2 entry or part of it): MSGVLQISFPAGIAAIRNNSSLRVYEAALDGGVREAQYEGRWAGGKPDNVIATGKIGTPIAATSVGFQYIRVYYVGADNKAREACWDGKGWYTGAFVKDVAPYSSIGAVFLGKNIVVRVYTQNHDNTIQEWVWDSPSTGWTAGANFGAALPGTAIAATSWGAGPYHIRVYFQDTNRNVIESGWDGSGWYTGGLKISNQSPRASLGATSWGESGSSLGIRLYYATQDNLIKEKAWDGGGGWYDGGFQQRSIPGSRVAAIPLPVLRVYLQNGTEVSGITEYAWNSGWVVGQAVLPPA
T1 sequence (Q4WW81 whole entry): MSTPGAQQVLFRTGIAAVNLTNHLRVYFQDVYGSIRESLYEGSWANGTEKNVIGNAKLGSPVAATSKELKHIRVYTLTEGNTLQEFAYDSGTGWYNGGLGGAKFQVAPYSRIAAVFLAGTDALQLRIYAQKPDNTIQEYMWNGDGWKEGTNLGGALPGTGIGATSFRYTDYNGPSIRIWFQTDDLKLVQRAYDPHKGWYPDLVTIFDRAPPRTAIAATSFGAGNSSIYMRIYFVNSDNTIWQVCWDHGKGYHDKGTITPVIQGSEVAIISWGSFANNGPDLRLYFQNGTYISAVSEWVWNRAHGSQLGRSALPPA

Compound | Kd ([1]; 25 °C) [nM] | N stoichiometry FleA ITC ([1]; 25 °C) | -TΔS (kJ/mol) FleA binding [1] [kJ/mol] | ΔH (kJ/mol) FleA binding [1] [kJ/mol] | Kd ([2]; 25 °C) [nM] | -TΔS (kJ/mol) BambL binding [2] [kJ/mol] | ΔH (kJ/mol) BambL binding [2] [kJ/mol] | N BambL binding (Table S3) [2] | Kd [3] [nM] | IC50 [4] [nM] | IC50 [5] [nM] | N stoichiometry SapL1 ITC ([7]; 25 °C) | -TΔS (kJ/mol) SapL1 binding [7] [kJ/mol] | ΔH (kJ/mol) SapL1 binding [7] [kJ/mol] | further results
C[C@@H]1O[C@@H](OCCN=[N+]=[N-])[C@@H](O)[C@H](O)[C@@H]1O [2a] | 97600 ± 300 | 4.1 ± 0.02 | 16 ± 4 | -39 ± 4 | 2140 ± 80 | 17 ± 1 | -50 ± 1 | 1.81 ± 0.01 |  |  |  |  |  |  | 
C[C@@H]1OC(O)[C@@H](O)[C@H](O)[C@@H]1O (stereo partly drawn) [L-Fuc] |  |  |  |  |  |  |  |  | 209000 |  |  |  |  |  | 
C[C@@H]1O[C@@H](OCCNC(=O)CCOCCOCCOCCOCCNC(=O)Cc2ccc(SCc3c(CSc4ccc(CC(=O)NCCOCCOCCOCCOCCC(=O)NCCO[C@@H]5O[C@@H](C)[C@@H](O)[C@@H](O)[C@@H]5O)cc4)c(CSc4ccc(CC(=O)NCCOCCOCCOCCOCCC(=O)NCCO[C@@H]5O[C@@H](C)[C@@H](O)[C@@H](O)[C@@H]5O)cc4)c(CSc4ccc(CC(=O)NCCOCCOCCOCCOCCC(=O)NCCO[C@@H]5O[C@@H](C)[C@@H](O)[C@@H](O)[C@@H]5O)cc4)c(CSc4ccc(CC(=O)NCCOCCOCCOCCOCCC(=O)NCCO[C@@H]5O[C@@H](C)[C@@H](O)[C@@H](O)[C@@H]5O)cc4)c3CSc3ccc(CC(=O)NCCOCCOCCOCCOCCC(=O)NCCO[C@@H]4O[C@@H](C)[C@@H](O)[C@@H](O)[C@@H]4O)cc3)cc2)[C@@H](O)[C@H](O)[C@@H]1O [hexa-4] | 115 ± 4 | 0.8 ± 0.02 and 0.8 | 206 ± 6 | -246 ± 6 | 4.7 ± 0.9 | 249 ± 10 | -296 ± 9 | 0.35 ± 0.01 |  | 31 ± 3 | 148 ± 6 | 0.72 ± 0.02 and 0.72 | 155 ± 12 | -199 ± 13 | IC50 [6]: 43 ± 6 nM; β affinity enhancement (Kd,mono/Kd,multi) FleA ITC ([1]; 25 °C): 849; β/v affinity enhancement per single sugar FleA ITC ([1]; 25 °C, v = valency): 142; β affinity enhancement (Kd,mono/Kd,multi) SapL1 ITC ([7]; 25 °C): 2735; β/v affinity enhancement per single sugar SapL1 ITC ([7]; 25 °C, v = valency): 456; Kd ([7]; read-out: Kd (nM) SapL1 ITC, 25 °C, 20 mM Tris, 100 mM NaCl, pH 8.0): 25 nM and 24.9 nM; β affinity enhancement (Kd,mono/Kd,multi) BambL ITC ([2]; 25 °C): 455; N stoichiometry BambL ITC ([2]; 25 °C, ratio of compound per BambL trimer (six binding sites)): 1.05; β/v affinity enhancement per single sugar BambL ITC ([2]; 25 °C, v = valency): 76; Kd [8]: 1.6 ± 0.1 nM; Kd [9]: 4.1 ± 0.1 nM; Kd [10]: 1.2 ± 0.2 nM
CO[C@@H]1O[C@@H](C)[C@@H](O)[C@@H](O)[C@@H]1O [α-Me-Fuc, α-methyl fucose, reference compound] |  |  |  |  |  |  |  |  |  | 1400 ± 200 | 111000 | 3.52 ± 0.13 | 27 ± 2 | -63 ± 11 | anti-adhesive effect ([11]; 0.1 mM, spores preincubated with compound, MOI 2, Figure S3): ineffective; concentration needed to elicit any measurable anti-adhesive properties ([11]; control experiment, preincubation): 1 mM; Kd [12]: 1000 to 200000 nM
CC(=O)N[C@H]1C(O)O[C@H](CO)[C@@H](O[C@@H]2O[C@@H](C)[C@@H](O)[C@@H](O)[C@@H]2O)[C@@H]1O (stereo partly shown) [αFuc(1–4)GlcNAc] |  |  |  |  |  |  |  |  | 63000 |  |  |  |  |  | 
